From PubChem BioAssay AID248 (DTP/NCI, 2004)
Where “and” joins values, the source holds several entries; their conditions need not be identical. Identical values can stand only once. Toxic doses and inconclusive results are not listed. Rule as the data show it: active = T/C of 150% or more; inactive = T/C below 125%.

Tested on: L1210 leukemia ip in BDF1 mice, survival T/C
Assay: NCI In Vivo Anticancer Drug Screen. Data for tumor model L1210 Leukemia (intraperitoneal) in B6D2F1 (BDF1) mice
Details: endpoint: mean survival time, higher = longer survival
Summary of the method: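 Tumor cells were implanted, animals were treated, and survival was followed. The result divides the treated measurement by the vehicle-control measurement.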

[1] = dose: 100.0 mg/kg/injection, schedule: Q04DX002 (ip), vehicle: Klucel (hydroxypropylcellulose) (HPC)
[2] = dose: 200.0 mg/kg/injection, schedule: Q04DX002 (ip), vehicle: Klucel (hydroxypropylcellulose) (HPC)
[3] = dose: 400.0 mg/kg/injection, schedule: Q04DX002 (ip), vehicle: Klucel (hydroxypropylcellulose) (HPC)
[4] = dose: 100.0 mg/kg/injection, schedule: Q04DX003 (ip), vehicle: Klucel (hydroxypropylcellulose) (HPC)
[5] = dose: 200.0 mg/kg/injection, schedule: Q04DX003 (ip), vehicle: Klucel (hydroxypropylcellulose) (HPC)
[6] = dose: 400.0 mg/kg/injection, schedule: Q04DX003 (ip), vehicle: Klucel (hydroxypropylcellulose) (HPC)
[7] = dose: 100.0 mg/kg/injection, schedule: Q04DX003 (ip), vehicle: saline with Tween-80
[8] = dose: 200.0 mg/kg/injection, schedule: Q04DX003 (ip), vehicle: saline with Tween-80
[9] = dose: 100.0 mg/kg/injection, schedule: Q01DX009 (ip), vehicle: saline
[10] = dose: 100.0 mg/kg/injection, schedule: Q04DX003 (ip), vehicle: saline
[11] = dose: 200.0 mg/kg/injection, schedule: Q01DX009 (ip), vehicle: saline
[12] = dose: 200.0 mg/kg/injection, schedule: Q04DX003 (ip), vehicle: saline
[13] = dose: 400.0 mg/kg/injection, schedule: Q04DX003 (ip), vehicle: saline

Measured: T/C

COc1cc2c(c(OC)c1OC)-c1ccc(OC)c(=O)cc1[C@@H](NC(=O)CCl)CC2
inactive: dose: 0.06 mg/kg/injection, schedule: Q01DX009 (ip), vehicle: Klucel (hydroxypropylcellulose) (HPC) 108 % of control | dose: 0.12 mg/kg/injection, schedule: Q01DX009 (ip), vehicle: Klucel (hydroxypropylcellulose) (HPC) 110 % of control | dose: 0.14 mg/kg/injection, schedule: Q01DX009 (ip), vehicle: saline 115 % of control | dose: 0.18 mg/kg/injection, schedule: Q04DX003 (ip), vehicle: Klucel (hydroxypropylcellulose) (HPC) 102 % of control | dose: 0.23 mg/kg/injection, schedule: Q01DX009 (ip), vehicle: saline 121 % of control | dose: 0.25 mg/kg/injection, schedule: Q01DX009 (ip), vehicle: Klucel (hydroxypropylcellulose) (HPC) 118 % of control and 124 % of control | dose: 0.37 mg/kg/injection, schedule: Q04DX003 (ip), vehicle: Klucel (hydroxypropylcellulose) (HPC) 119 % of control | dose: 0.75 mg/kg/injection, schedule: Q04DX003 (ip), vehicle: Klucel (hydroxypropylcellulose) (HPC) 120 % of control

Nc1cc(I)c2cccnc2c1O
inactive: dose: 6.25 mg/kg/injection, schedule: Q01DX009 (ip), vehicle: saline 101 % of control | dose: 10.0 mg/kg/injection, schedule: Q01DX015 (ip), vehicle: saline 95 % of control | dose: 12.5 mg/kg/injection, schedule: Q01DX009 (ip), vehicle: saline 96 % of control | dose: 20.0 mg/kg/injection, schedule: Q01DX015 (ip), vehicle: saline 87 % of control | dose: 25.0 mg/kg/injection, schedule: Q01DX009 (ip), vehicle: saline 102 % of control | dose: 50.0 mg/kg/injection, schedule: Q01DX009 (ip), vehicle: saline 98 % of control

Cc1ccccc1NC(=O)Oc1ccc(C2CCCCC2)cc1
inactive: [1] 103 % of control | [2] 91 % of control | [3] 100 % of control

CC(C)CNC(=O)CCc1ccc(N(CCCl)CCCl)cc1
inactive: dose: 50.0 mg/kg/injection, schedule: Q01DX009 (ip), vehicle: Klucel (hydroxypropylcellulose) (HPC) 109 % of control | dose: 100.0 mg/kg/injection, schedule: Q01DX009 (ip), vehicle: Klucel (hydroxypropylcellulose) (HPC) 117 % of control | [4] 120 % of control | [5] 102 % of control | [6] 112 % of control

CC1=C(N)C(=O)C2=C(C1=O)N1CC3C(N3C)C1(O)C2COC(N)=O (stereo not given)
inactive: dose: 15.0 mg/kg/injection, schedule: Q01DX001 (ip), vehicle: acetone 111 % of control | dose: 23.0 mg/kg/injection, schedule: Q01DX001 (ip), vehicle: acetone 109 % of control | dose: 35.0 mg/kg/injection, schedule: Q01DX001 (ip), vehicle: saline 111 % of control | dose: 50.0 mg/kg/injection, schedule: Q01DX001 (ip), vehicle: acetone 108 % of control | dose: 50.0 mg/kg/injection, schedule: Q01DX001 (ip), vehicle: saline 118 % of control

CCCOc1ccc(C(=O)C(=O)c2ccccc2)cc1
inactive: dose: 100.0 mg/kg/injection, schedule: Q01DX001 (ip), vehicle: carboxymethylcellulose (CMC) 97 % of control | dose: 200.0 mg/kg/injection, schedule: Q01DX001 (ip), vehicle: carboxymethylcellulose (CMC) 100 % of control | dose: 400.0 mg/kg/injection, schedule: Q01DX001 (ip), vehicle: carboxymethylcellulose (CMC) 97 % of control

OC(c1ccccc1)(c1ccc(-c2ccccc2)cc1)c1cccc2ccccc12 (stereo not given)
inactive: dose: 75.0 mg/kg/injection, schedule: Q01DX001 (ip), vehicle: saline 92 % of control | dose: 150.0 mg/kg/injection, schedule: Q01DX001 (ip), vehicle: saline 92 % of control | dose: 300.0 mg/kg/injection, schedule: Q01DX001 (ip), vehicle: saline 91 % of control

CC(C)(C)CN=C(N)N
inactive: dose: 100.0 mg/kg/injection, schedule: Q01DX001 (ip), vehicle: saline 96 % of control | dose: 200.0 mg/kg/injection, schedule: Q01DX001 (ip), vehicle: saline 94 % of control | dose: 400.0 mg/kg/injection, schedule: Q01DX001 (ip), vehicle: saline 102 % of control

CC(=O)c1ccc(-c2ccc(C(C)=O)cc2)cc1
inactive: [1] 97 % of control | [2] 101 % of control | [3] 97 % of control

CC1CCC2C(C)C3C(CC4C5CCC6CC(O)CCC6(C)C5CCC43C)N2C1 (stereo not given)
inactive: dose: 50.0 mg/kg/injection, schedule: Q01DX001 (ip), vehicle: other 91 % of control | dose: 100.0 mg/kg/injection, schedule: Q01DX001 (ip), vehicle: other 88 % of control | dose: 200.0 mg/kg/injection, schedule: Q01DX001 (ip), vehicle: other 96 % of control | dose: 400.0 mg/kg/injection, schedule: Q01DX001 (ip), vehicle: other 91 % of control

OCC1OC([Se])C(O)C(O)C1O.[CH3][Sb][CH3] (stereo not given)
inactive: dose: 3.13 mg/kg/injection, schedule: Q01DX009 (ip), vehicle: Klucel (hydroxypropylcellulose) (HPC) 99 % of control | dose: 6.25 mg/kg/injection, schedule: Q01DX009 (ip), vehicle: Klucel (hydroxypropylcellulose) (HPC) 96 % of control and 98 % of control | dose: 12.5 mg/kg/injection, schedule: Q01DX009 (ip), vehicle: Klucel (hydroxypropylcellulose) (HPC) 99 % of control and 104 % of control | dose: 25.0 mg/kg/injection, schedule: Q01DX009 (ip), vehicle: Klucel (hydroxypropylcellulose) (HPC) 91 % of control

c1ccc2c(CN3CCCCC3)c[nH]c2c1
inactive: dose: 50.0 mg/kg/injection, schedule: Q01DX009 (ip), vehicle: saline with Tween-80 108 % of control | dose: 100.0 mg/kg/injection, schedule: Q01DX009 (ip), vehicle: saline with Tween-80 88 % of control | [7] 93 % of control | [8] 88 % of control

CN(C)CC(=O)Nc1cc(Cl)ccc1Oc1ccc(Cl)cc1
inactive: [7] 94 % of control | [8] 100 % of control | dose: 400.0 mg/kg/injection, schedule: Q04DX003 (ip), vehicle: saline with Tween-80 100 % of control

O=C1Nc2ccccc2CCc2ccccc21
inactive: [9] 87 % of control | [10] 94 % of control | [11] 100 % of control | [12] 100 % of control | dose: 400.0 mg/kg/injection, schedule: Q01DX009 (ip), vehicle: saline 89 % of control | [13] 96 % of control

COCc1ccc(C(=O)Nc2c(N)ncnc2N)cc1
inactive: dose: 100.0 mg/kg/injection, schedule: Q01DX001 (ip), vehicle: saline with Tween-80 100 % of control | dose: 200.0 mg/kg/injection, schedule: Q01DX001 (ip), vehicle: saline with Tween-80 102 % of control | dose: 400.0 mg/kg/injection, schedule: Q01DX001 (ip), vehicle: saline with Tween-80 95 % of control

CC(=O)Oc1cc2c(OC(C)=O)c(-c3c(C)cc4c(C(C)C)c(OC(C)=O)c(OC(C)=O)cc4c3OC(C)=O)c(C)cc2c(C(C)C)c1OC(C)=O
inactive: [7] 86 % of control

CCCCCCCCC/C(C)=N\NC(=O)c1ccccc1
inactive: [4] 105 % of control | [5] 92 % of control | [6] 97 % of control

O=C=Nc1ccc(CCc2ccc(N=C=O)cc2)cc1
inactive: [9] 88 % of control | [10] 93 % of control | [11] 87 % of control | [12] 102 % of control | [13] 106 % of control

Cc1ccc2ccccc2c1N(CC(=O)O)S(=O)(=O)c1ccccc1 (tested in a mixture with another compound)
inactive: dose: 100.0 mg/kg/injection, schedule: Q04DX003 (ip), vehicle: saline sonified 94 % of control | dose: 200.0 mg/kg/injection, schedule: Q04DX003 (ip), vehicle: saline sonified 94 % of control | dose: 400.0 mg/kg/injection, schedule: Q04DX003 (ip), vehicle: saline sonified 112 % of control
